Entries after “also recorded” stand apart in the source; their conditions may differ. Bridge positions count the residues as written; N and C are the ends. Square brackets hold non-standard residues; d marks the D form. Peptide text beside a SMILES is read from it. hArg = N=C(N)NCCCC[C@H](N)C(=O)O; Mpa = O=C(O)CCS

2 molecules from patent US20040072750A1, “Compounds and methods for the modulation of CD154” (priority 2001, published 2004) can be followed below.

What all share (type): cell-based, human
The test system of test [1] is platelets. Description: Release of sCD154 from stimulated platelets in platelet-rich plasma (ELISA). As for the experimental part:
Platelet-rich plasma (PRP) was prepared from human donors by obtaining blood through a 19-gauge butterfly into PPACK anticoagulant (8.6 ml of 2.1 mM PPACK, Calbiochem, La Jolla, Calif.: final concentration 0.3 mM). Blood was aliquoted into 15 ml polypropylene tubes and centrifuged at 900 rpm for 20 minutes (160×g). The platelet rich plasma (PRP) was carefully removed and pooled in a new tube. Platelet counts were taken and recorded. Aliquots of PRP at 37° C. were then added to 1.5 ml microcentrifuge tubes containing various amounts of eptifibatide. To initiate aggregation, 20 μM ADP 4 μg/mL collagen or 5 μM TRAP6 was added and samples were rocked on a Nutator for 30 minutes at 37° C. The tubes were put on ice and immediately centrifuged at 15,000×g for 10 minutes at 4° C.
The platelet-poor plasma (PPP) supernatant was removed to new tubes and the levels of sCD154 in these samples were measured by ELISA. There was a time-dependent increase in sCD154 release when platelets were aggregated with either ADP or TRAP6.
In other experiments, various concentrations of eptifibatide, abciximab or tirofiban were added to PRP before the addition of TRAP. In the eptifibatide experiments, the release of βTG from platelet a granules was determined from PPP samples by ELISA. Inhibition of aggregation by GP IIb-IIIa antagonists was determined in PPACK-anticoagulated PRP by light-transmission aggregometry (Chrono-Log) as described in Phillips et al. (1995) J Exp. Med 182:33-40. To assess the effect of aspirin use on the release of sCD154 from platelets, PRP was obtained from 7 donors, incubated with a single concentration of GP IIb-IIIa inhibitor, and stimulated with 20 μmol/L ADP, 5 μmol/L TRAP or 4 μg/mL collagen for 30 minutes while rocking at 37° C. Resultant PPP was measured for sCD154. The same donors then took 325 mg of aspirin for 7 days. PRP was again collected and subjected to the same conditions, and the release of sCD154 was determined. A control reading (no addition of inhibitor) was taken with the agonist 0.5 mmol/L arachidonic acid in citrated PRP to ensure that the aspirin had been taken.
For orientation: An ELISA detects its analyte on a solid surface through an enzyme-linked reagent.

Test [2] deals with platelets. Description: Platelet surface expression of CD154 and release of thrombospondin.
For a further test, the system named is washed platelets. Description: β3 integrin tyrosine-759 phosphorylation staining of platelets spread on sCD154. The conditions noted are these: platelets spread on 10 μg/ml sCD154 coated cover slips. As for the experimental part: Further, cover slips were coated with 10 μg/ml sCD154 for 2 hours at 37° C. and blocked with 5% crystalline BSA (Sigma chemicals). 100 μl of washed platelets at 10^7/ml were allowed to spread for 1 hour at 37° C. Non-adhered platelets were washed off with PBS. Adhered platelets were fixed with 4% para-formaldehyde and permeabilized with 0.5% Triton X-100 and 0.5% BSA in PBS. Permeabilized platelets were blocked with 3% goat serum and 2% BSA for 30 min. followed by incubation with a IIIa(p3) integrin cytoplasmic tyrosine-759 phospho-specific polyclonal antibody for 2 hours at room temperature. After 30 minutes washing with PBS containing 0.1% Triton X-100 and 0.5% BSA, the coverslips were incubated with a Alexa 596 goat anti-rabbit antibody and Alexa fluor 488 phalloidin for 40 min. followed by a brief wash and mounted on slides with VECTASHIELD (Vector laboratories, Burlingame, Calif.). Images were recorded using a digital camera, Hamamatsu, ORCA-ER attached to a Nikon fluorescence microscope, eclipse E1000 (Technical Instruments, San Francisco, Calif.). […] The staining was inhibited by β3 759 phospho-peptide confirming the specificity of the antibody (FIG. 11b).

As to `N=C(N)NCCCC[C@@H]1NC(=O)CCSSC[C@@H](C(N)=O)NC(=O)[C@@H]2CCCN2C(=O)[C@H](Cc2c[nH]c3ccccc23)NC(=O)[C@H](CC(=O)O)NC(=O)CNC1=O` [eptifibatide] ([Mpa][hArg]GDWPC-NH2; disulfide 1-7), in the test with platelets [1] (TRAP-stimulated platelets, release without GP IIb-IIIa inhibitor set at 100%, average and SD), the “Inhibition of sCD154 Release at >90% Platelet Aggregation Inhibition, %” value came to 85 ± 6.3%. In the test with platelets [1] (inhibitor added prior to agonist, PPACK plasma), the “release of sCD154 from platelets activated with ADP or TRAP” value is given as “blocked in a dose dependent manner; also recorded: inhibited”. Also, in the test on platelets [1] (maximal potentiation, TRAP-stimulated platelets, release without inhibitor set at 100%, average and SD), the “Potentiation of sCD154 Release, %” value is recorded as 26 ± 10%. The “thrombin- or TRAP-induced surface expression of CD154” value with platelets [2] is “did not affect; also recorded: unaffected”. For the same molecule, the “TRAP-induced release of thrombospondin” value in the test with platelets [2] (data not shown) is “did not affect; also recorded: without affecting”.

B1: rsCD154: bacterially expressed recombinant human soluble CD154 (108 a.a-261 a.a.), 18-kDa protein (protein)
chain: ENSFEMQKGDQNPQIAAHVISEASSKTTSVLQWAEKGYYTMSNNLVTLENGKQLTVKRQGLYYIYAQVTFCSNREASSQAPFIASLCLKSPGRFERILLRAANTHSSAKPCGQQSIHLGGVFELQPGASVFVNVTDPSQVSHGTGFTSFGLLKL
B1: in the test on washed platelets, the “staining with β3 integrin 759-tyrosine phosphospecific antibody” value is “stained positive”.
